Structures are written as SMILES.

In general, viability refers to a read-out of living cells in per cent, often relative to untreated cells.

The data set in a line: in vitro. As to conditions: human, hek293t cells.
On to `C=CC(=O)NCc1cc(Cl)c2c(c1)OCCO2` [1-L05, N-[(8-chloro-2,3-dihydro-1,4-benzodioxin-6-yl)methyl]prop-2-enamide], for which the viability at 48 h, 25 µM turned out to be 112%.
Under `C=CC(=O)NCCc1cnc2c(Cl)cnn2c1` [1-L06, N-(2-{3-chloropyrazolo[1,5-a]pyrimidin-6-yl}ethyl)prop-2-enamide] stands 74.5%.
`C=CC(=O)N1CCC(OC2CCCC2)CC1` [1-L07, 1-[4-(cyclopentyloxy)piperidin-1-yl]prop-2-en-1-one]: the viability at 48 h, 25 µM is 96.8%.
Under `C=CC(=O)N1CCOC2(CCCCCC2)C1` [1-L08, 1-{1-oxa-4-azaspiro[5.6]dodecan-4-yl}prop-2-en-1-one] stands 73.9%.
Under `C=CC(=O)N(Cc1ccc2c(c1)CCC2)Cc1c(C)noc1C` [1-L09, N-[(2,3-dihydro-1H-inden-5-yl)methyl]-N-[(3,5-dimethyl-1,2-oxazol-4-yl)methyl]prop-2-enamide] stands 92.1%.
Under `C=CC(=O)NCc1cc(C2CC2)nn1C` [1-L10, N-[(3-cyclopropyl-1-methyl-1H-pyrazol-5-yl)methyl]prop-2-enamide] stands 92.5%.
In the case of `C=CC(=O)NCC(=O)Nc1ccc2c[nH]nc2c1` [1-L11, N-{[(2H-indazol-6-yl)carbamoyl]methyl}prop-2-enamide], the viability at 48 h, 25 µM is 89.7%.
Under `C=CC(=O)N1CCOCC1c1ncnn1Cc1ccccc1` (stereo not drawn) [1-L12, 1-[3-(1-benzyl-1H-1,2,4-triazol-5-yl)morpholin-4-yl]prop-2-en-1-one] stands 63.7%; under `C=CC(=O)N(Cc1cc(F)c(F)c(F)c1)C(C)C1CCCO1` (stereo not drawn) [1-L13, N-[1-(oxolan-2-yl)ethyl]-N-[(3,4,5-trifluorophenyl)methyl]prop-2-enamide], 176%; under `C=CC(=O)N1CC(C)(C)c2cc(Cl)ccc21` [1-L14, 1-(5-chloro-3,3-dimethyl-2,3-dihydro-1H-indol-1-yl)prop-2-en-1-one], 1.22%.
Under `C=CC(=O)N(Cc1cccs1)C1CCc2cnn(C(C)C)c2C1` (stereo not drawn) [1-L15, N-[1-(propan-2-yl)-4,5,6,7-tetrahydro-1H-indazol-6-yl]-N-[(thiophen-2-yl)methyl]prop-2-enamide] stands 82.3%; under `C=CC(=O)N(C)Cc1ccn(CC)n1` [1-L16, N-[(1-ethyl-1H-pyrazol-3-yl)methyl]-N-methylprop-2-enamide], 75.2%; under `C=CC(=O)NCc1ccc(C(=O)N2CCOCC2)cc1` [1-L17, N-{[4-(morpholine-4-carbonyl)phenyl]methyl}prop-2-enamide], 81.2%.
Consider `C=CC(=O)N1CCC[C@H]1Cn1cc(C2CC2)nn1` [1-L18, 1-[(2S)-2-[(4-cyclopropyl-1H-1,2,3-triazol-1-yl)methyl]pyrrolidin-1-yl]prop-2-en-1-one], for which the viability at 48 h, 25 µM turned out to be 92.2%.
As for `C=CC(=O)N1CCCc2cccc(F)c21` [1-L19, 1-(8-fluoro-1,2,3,4-tetrahydroquinolin-1-yl)prop-2-en-1-one], the viability at 48 h, 25 µM is 112%.
Under `C=CC(=O)N1CCCC(Cc2noc(C)n2)C1` (stereo not drawn) [1-L20, 1-{3-[(5-methyl-1,2,4-oxadiazol-3-yl)methyl]piperidin-1-yl}prop-2-en-1-one] stands 72.5%; under `C=CC(=O)Nc1ccc2ccn(CCN(C)C)c2c1` [1-L21, N-{1-[2-(dimethylamino)ethyl]-1H-indol-6-yl}prop-2-enamide], 113%; under `C=CC(=O)N1CC(NC(=O)c2ccoc2CC)C(C)(C)C1` (stereo not drawn) [1-L22, N-[4,4-dimethyl-1-(prop-2-enoyl)pyrrolidin-3-yl]-2-ethylfuran-3-carboxamide], 71.3%.
Under `C=CC(=O)NCc1cnc(N2CCOCC2)s1` [1-M03, N-{[2-(morpholin-4-yl)-1,3-thiazol-5-yl]methyl}prop-2-enamide] stands 86.3%; under `C=CC(=O)NC1(c2cccc(F)c2)CCOCC1` [1-M04, N-[4-(3-fluorophenyl)oxan-4-yl]prop-2-enamide], 71.1%.
Under `C=CC(=O)Nc1ccccc1-c1nnnn1C` [1-M05, N-[2-(1-methyl-1H-1,2,3,4-tetrazol-5-yl)phenyl]prop-2-enamide] stands 79.7%.
Regarding `C=CC(=O)NCCc1coc(-c2ccc(C)cc2)n1` [1-M06, N-{2-[2-(4-methylphenyl)-1,3-oxazol-4-yl]ethyl}prop-2-enamide], the viability at 48 h, 25 µM came to 68.3%.
Under `C=CC(=O)NCc1ccc(-n2cccn2)cc1` [1-M07, N-{[4-(1H-pyrazol-1-yl)phenyl]methyl}prop-2-enamide] stands 81.4%.
For the molecule `C=CC(=O)NC1CCC(OCc2cc(C)no2)CC1` (stereo not drawn) [1-M08, N-{4-[(3-methyl-1,2-oxazol-5-yl)methoxy]cyclohexyl}prop-2-enamide], the viability at 48 h, 25 µM was 86.5%.
Regarding `C=CC(=O)NC(C)c1nnnn1C1CC1` (stereo not drawn) [1-M09, N-[1-(1-cyclopropyl-1H-1,2,3,4-tetrazol-5-yl)ethyl]prop-2-enamide], the viability at 48 h, 25 µM stood at 82.7%.
In the case of `C=CC(=O)N(CCO)c1ccc(C(=O)O)cc1` [1-M10, 4-[N-(2-hydroxyethyl)prop-2-enamido]benzoic acid], the viability at 48 h, 25 µM stood at 96.4%.
Under `C=CC(=O)NCc1ccnc(N2CCN(c3ccc(F)cc3)CC2)c1` [1-M11, N-({2-[4-(4-fluorophenyl)piperazin-1-yl]pyridin-4-yl}methyl)prop-2-enamide] stands 71.6%.
For `C=CC(=O)Nc1ncccn1` [1-M12, N-(pyrimidin-2-yl)prop-2-enamide], the viability at 48 h, 25 µM stood at 71.5%.
For the molecule `C=CC(=O)Nc1cc2c(cc1Sc1ccccc1)OCCO2` [1-M13, N-[7-(phenylsulfanyl)-2,3-dihydro-1,4-benzodioxin-6-yl]prop-2-enamide], the viability at 48 h, 25 µM amounted to 82.4%.
Under `C=CC(=O)NCc1cccc(-n2cccn2)n1` [1-M14, N-{[6-(1H-pyrazol-1-yl)pyridin-2-yl]methyl}prop-2-enamide] stands 93.2%; under `C=CC(=O)Nc1ccccc1C1CC1(F)F` (stereo not drawn) [1-M15, N-[2-(2,2-difluorocyclopropyl)phenyl]prop-2-enamide], 86.4%.
`C=CC(=O)Nc1cccc(C(O)C(F)(F)F)c1` (stereo not drawn) [1-M16, N-[3-(2,2,2-trifluoro-1-hydroxyethyl)phenyl]prop-2-enamide]: the viability at 48 h, 25 µM is 102%.
Regarding `C=CC(=O)NCC1CCCC(C2CC2)O1` (stereo not drawn) [1-M17, N-[(6-cyclopropyloxan-2-yl)methyl]prop-2-enamide], the viability at 48 h, 25 µM worked out at 88.7%.
Under `C=CC(=O)NCc1ccc(-n2ccnc2)cc1` [1-M18, N-{[4-(1H-imidazol-1-yl)phenyl]methyl}prop-2-enamide] stands 90.9%; under `C=CC(=O)Nc1c(C)cnn1CC1CC1` [1-M19, N-[1-(cyclopropylmethyl)-4-methyl-1H-pyrazol-5-yl]prop-2-enamide], 94.9%.
Consider `C=CC(=O)Nc1ccc(C(=O)C(F)F)cc1` [1-M20, N-[4-(2,2-difluoroacetyl)phenyl]prop-2-enamide], for which the viability at 48 h, 25 µM was 104%.
Regarding `C=CC(=O)Nc1ncnc2c1cnn2Cc1cccc(C)c1` [1-M21, N-{1-[(3-methylphenyl)methyl]-1H-pyrazolo[3,4-d]pyrimidin-4-yl}prop-2-enamide], the viability at 48 h, 25 µM was 100%.
For the molecule `C=CC(=O)NCc1nnnn1-c1ccc(F)cc1` [1-M22, N-{[1-(4-fluorophenyl)-1H-1,2,3,4-tetrazol-5-yl]methyl}prop-2-enamide], the viability at 48 h, 25 µM came to 106%.
Under `C=CC(=O)NCc1ccccc1S(=O)(=O)NC` [1-N03, N-{[2-(methylsulfamoyl)phenyl]methyl}prop-2-enamide] stands 92.3%; under `C=CC(=O)NC(C)c1cn(-c2ccccc2)nn1` (stereo not drawn) [1-N04, N-[1-(1-phenyl-1H-1,2,3-triazol-4-yl)ethyl]prop-2-enamide], 78.9%; under `C=CC(=O)N1CCc2c(nnn2CCOC)C1` [1-N05, 1-[1-(2-methoxyethyl)-1H,4H,5H,6H,7H-[1,2,3]triazolo[4,5-c]pyridin-5-yl]prop-2-en-1-one], 105%.
As for `C=CC(=O)NCc1conc1C1CCC1` [1-N06, N-[(3-cyclobutyl-1,2-oxazol-4-yl)methyl]prop-2-enamide], the viability at 48 h, 25 µM turned out to be 69.5%.
Under `C=CC(=O)NCCc1c(C)oc2ccccc12` [1-N07, N-[2-(2-methyl-1-benzofuran-3-yl)ethyl]prop-2-enamide] stands 119%.
In the case of `C=CC(=O)NC1CCN(Cc2ccc(Cl)cc2)CC1` [1-N08, N-{1-[(4-chlorophenyl)methyl]piperidin-4-yl}prop-2-enamide], the viability at 48 h, 25 µM turned out to be 101%.
`C=CC(=O)N(CC(C)(C)C)C1CCN(c2ccc(C#N)cn2)CC1` [1-N09, N-[1-(5-cyanopyridin-2-yl)piperidin-4-yl]-N-(2,2-dimethylpropyl)prop-2-enamide]: the viability at 48 h, 25 µM was 105%.
For `C=CC(=O)NC(C)(C)c1noc(CCC)n1` [1-N10, N-[2-(5-propyl-1,2,4-oxadiazol-3-yl)propan-2-yl]prop-2-enamide], the viability at 48 h, 25 µM worked out at 91.9%.
Under `C=CC(=O)N1CCCC1c1cccc(C)c1` (stereo not drawn) [1-N11, 1-[2-(3-methylphenyl)pyrrolidin-1-yl]prop-2-en-1-one] stands 110%; under `C=CC(=O)Nc1ccc2c(=O)onc(C)c2c1` [1-N12, N-(4-methyl-1-oxo-1H-2,3-benzoxazin-6-yl)prop-2-enamide], 1.1%.
Under `C=CC(=O)N(Cc1cccc(F)c1F)C1CCCC(F)(F)C1` (stereo not drawn) [1-N13, N-(3,3-difluorocyclohexyl)-N-[(2,3-difluorophenyl)methyl]prop-2-enamide] stands 136%.
As for `C=CC(=O)Nc1ccnn1Cc1cccc(Cl)c1` [1-N14, N-{1-[(3-chlorophenyl)methyl]-1H-pyrazol-5-yl}prop-2-enamide], the viability at 48 h, 25 µM stood at 1.05%.
Under `C=CC(=O)NC1CCN(Cc2ccccc2)C1` (stereo not drawn) [1-N15, N-(1-benzylpyrrolidin-3-yl)prop-2-enamide] stands 103%.
